Assay results: article PMC4865845, “A human genome-wide loss-of-function screen identifies effective chikungunya antiviral drugs” (Nature Communications, 2016)

These substances were tested on CHIKV.
Type: cell-based, chikungunya virus

Substance	Score_si1	Score_si3	Score_si2	Score_si4
Hs_PP3856_2 (CTGGCTGGAGTCAGTCCTCAT; chemistry not given here)	2.53			
Hs_CDK4_3 (sense ACCCTGGTGTTTGAGCATGTA; chemistry not given here)		1.02		
Hs_SREBF2_4 (sense AAGGCCATTGATTACATCAAA; chemistry not given here)		1.41		
Hs_LRIG2_1 (AGGGATGTCATTGTAAATATA; chemistry not given here) [reference compound]	-2.53			
s51651 (sense TGAGCAGTGAGAACCCATA; chemistry not given here)			1.55	
Hs_MAP3K14_6 (TACCTAGTGCATGCTCTGCAA; chemistry not given here)		1.59		
Hs_COPS2_1 (sense CACGATATACTGCACTAGATA; chemistry not given here)			1.3	
Hs_CCNF_2 (sense AACCCAAGCGTTGGAACTGTA; chemistry not given here)	2.05			
Hs_PRSS15_4 (sense CCGGGACATCATTGCCTTGAA; chemistry not given here)	1.74			
s16837 (CAATGATCCAATCCACGAA; chemistry not given here)	1.36			
s993 (GGTGCGTCATATGCAGGAA; chemistry not given here) [reference compound]			-0.55	
Hs_NUDT1_5 (CCGCGAGGTGGACACGGTCTA; chemistry not given here)	2.08			
s16045 (GGTTTATCCACGGTAAAGA; chemistry not given here) [reference compound]				-0.44
Hs_DHX38_2 (CAGCAGTGAATTTGCAAAGAA; chemistry not given here)				1.02
Hs_APPL_2 (CAGGAATTTCTACAATAATAA; chemistry not given here) [reference compound]	-2.3			
Hs_RRBP1_4 (sense AAGAGATTGTAGAGAAGCTAA; chemistry not given here)		1.79		
Hs_RAD51L3_5 (sense CTGGAAGAGGTAGCTCAGAAA; chemistry not given here)	2.71			
Hs_ATP6AP2_3 (AAGGACTATCCTTGAGGCAAA; chemistry not given here)	1.26			
Hs_PRSS15_3 (sense TAGAAGCTATTTAATGATTAA; chemistry not given here)				1.21

Substance	Score_si1	Score_si3	Score_si2	Score_si4
s28296 (sense CTTCCTCGGTGGAACACGA; chemistry not given here)			1.22	
s10096 (GGTGTAAGATCAAAGAGAT; chemistry not given here)		1.3		
Hs_RXRA_4 (sense CTCATCGGCCTTGTAGTTGTA; chemistry not given here)			1.74	
Hs_PRPF4B_5 (sense TCGTCTGATGATAACCTTGAA; chemistry not given here)	2.38			
Hs_CALM2_5 (ACAAAGGAATTGGGAACTGTA; chemistry not given here)				0.05
s20629 (sense GGAGAAAGAATCAACGGAA; chemistry not given here)			2	
Hs_DLD_3 (CAGGTGGAATTGCCCACTTAT; chemistry not given here)	2.15			
s50143 (sense AAATAAATCTGGTGCATTA; chemistry not given here) [reference compound]				-0.41
Hs_GNG13_2 (sense CACGTGATTACAGTCTGTAAA; chemistry not given here)			1.42	
s195299 (sense ACACATATGTGATCAAGCT; chemistry not given here)				0.72
Hs_HSPE1_6 (sense GAGGGAGTAATGGCAGGACAA; chemistry not given here)	2.37			
s10857 (sense GAATCCGGTTTGGAATATA; chemistry not given here)				-0.29
s9324 (ACAACTTCAGTGCTGATCA; chemistry not given here)		0.83		
Hs_GP1BB_4 (sense CGAGCTGGTGCTGACCGGCAA; chemistry not given here) [reference compound]		-0.68		
s37713 (GAACCTCCTTCGGGATAAA; chemistry not given here)		0.52		
Hs_LBX1_1 (sense CACCAGATCTATGAATTGGAA; chemistry not given here)		1.41		
Hs_HMMR_2 (sense AAGTTAAGTCTTCGGAATCAA; chemistry not given here)	2.42			
Hs_PHF10_3 (CGGACAGTTCCAGGAATATTA; chemistry not given here)			0.88	
Hs_WDR40A_2 (AACACTGATAATAGGAAGTAA; chemistry not given here) [reference compound]				-0.22

Substance	Score_si1	Score_si3	Score_si2	Score_si4
s8005 (sense CCATGACTCCTGACTACCA; chemistry not given here)				0.75
Hs_GP1BB_5 (sense ACGAGTCCTGAGGAGAGAA; chemistry not given here) [reference compound]	-1.46			
s24800 (sense CTATGGATGTTGATGTAGA; chemistry not given here)			1.78	
s6098 (sense CCTTTAACGTGGACATGTA; chemistry not given here)	1.88			
Hs_SIMP_1 (sense CAGGGAGACATTAGATCACAA; chemistry not given here) [reference compound]				-0.7
Hs_ATP6AP2_5 (CAAGTGCTACATGATATTTCA; chemistry not given here)		0.69		
s27642 (sense GCATGATGTTCGTCCGCAA; chemistry not given here)				1.26
Hs_SSP411_1 (sense ATGGCCTTGCATACCCTGAAA; chemistry not given here)	2.33			
Hs_LOC407835_6 (sense CTGCTGGACTATATTGTGAAA; chemistry not given here)		0.74		
s21554 (sense CAGTATTGGTTATGAGTCT; chemistry not given here)				0.67
Hs_NRCAM_3 (GACGTTTGGTTTAAAGAATTA; chemistry not given here)			0.93	
Hs_RTN2_1 (sense TTGGATTTACACTGTAATAAA; chemistry not given here)				0.49
s10956 (sense CAAGCGGATTTCTACCCTT; chemistry not given here)	1.05			
Hs_CAMKK2_6 (sense CCGCAAGATCTTCTCTGGGAA; chemistry not given here)	1.65			
Hs_CCDC6_1 (sense ATGGATAATTATCGTATATTA; chemistry not given here) [reference compound]	-2.65			
Hs_CLTC_11 (sense ACAGTTCTACTTAGAATTCAA; chemistry not given here)	2.42			
Hs_ZZZ3_1 (CAGCCTGATGGGAACACTAAA; chemistry not given here) [reference compound]	-2.9			
Hs_P4HB_2 (CTATTTCACAATCGAATTGAA; chemistry not given here)		1.09		
Hs_F25965_1 (CAGCGAGAACACGCCACTGTA; chemistry not given here)	1.49			
